Literature values in patent US20080221049A1, “Free-flowing lyophilized tobramycin formulation” (APP Pharmaceuticals, LLC., priority 2004, published 2008).
Where a name gives a salt, the structure may show the parent alone. Read-outs that look alike come from different tables or passages of the source.

Details: after reconstitution, e.g. with 30 mL Sterile Water for Injection

NCC1OC(OC2C(N)CC(N)C(OC3OC(CO)C(O)C(N)C3O)C2O)C(N)CC1O [Tobramycin sulfate, 0-3-amino-3-deoxy-α-D-glucopyranosyl-(1→4) —O—[2,6-diamino-2,3,6-trideoxy-α-D-ribo-hexopyranosyl-(1→6)]-2-deoxy-L-streptamine, sulfate (2:5)(salt)]
time within which the reconstituted solution should be used (stored at room temperature): ≤ 24 h | time within which the reconstituted solution should be used (stored under refrigeration): ≤ 96 h
